Results as given in patent publication US20190365710A1, “METHODS OF TREATING CANCER” (GlaxoSmithKline Intellectual Property Development Limited, priority 2016, published 2019).
Where two headings read alike, the source gives them in different places.

What was measured:
AML cell lines [1] = test: Methylscan proteomic evaluation of arginine methylation; type: cell-based; settings: AML cell lines treated with the tool compound vs DMSO
From the text: FIG. 3: Methylscan evaluation of cell lines treated with Compound D. Percent of proteins with methylation changes (independent of directionality of change) are categorized by functional group as indicated.
To identify putative PRMT1 substrates, a proteomic approach (Methylscan, Cell Signaling Technology) was utilized to identify proteins with changes in arginine methylation states in response to a tool PRMT1 inhibitor, Compound D. Protein fragments from Compound D- and DSMO-treated cell extracts were immunoprecipitated using methyl arginine specific antibodies (ADMA, MMA, SDMA), and peptides were identified by mass spectrometry.

PRMT6 = PRMT6 (Homo sapiens, UniProt Q96LA8); test: biochemical
OCI-Ly1 = settings: only at this concentration
Procedure: (§1) FIG. 18: Propidium iodide FACS analysis of cell cycle in human lymphoma cell lines. […] Data represents the average±SEM of biological replicates, n=2.
(§2) By day 7, an increase in the sub-G1 population was apparent at concentrations ≥100 nM.

Toledo = test system: Toledo
Procedure: as §1, §2

U2932 = settings: only at this concentration
Procedure: as §1, §2

Colon cancer cell lines = test: 6-day growth-death assay (Cell Titer Glo); type: cell-based, human
Lymphoma cell lines = test: 6-day growth-death assay (Cell Titer Glo); type: cell-based, human; settings: for IC50: Homo sapiens, read-out: Median gIC50, Lymphoma
Breast cancer cell lines = test: 6-day growth-death assay (Cell Titer Glo); settings: for IC50: Homo sapiens
Procedure: Cell lines representing triple negative breast cancer (TNBC) are shown in orange; other subtypes are in blue.
(§3) The growth of all cell lines was evaluated over time across a wide range of seeding densities to identify conditions that permitted proliferation throughout the entire 6-day assay. Cells were plated at the optimal seeding density and after overnight incubation, a 20-point 2-fold titration of compound was added and plates were incubated for 6 days. A replicate plate of cells was harvested at the time of compound addition to quantify the starting number of cells (To). Values obtained after the 6 day treatment were expressed as a function of the To value and plotted against compound concentration. The To value was normalized to 100% and represents the number of cells at the time of compound addition. The data were fit with a 4 parameter equation to generate a concentration response curve and the growth IC50 (gIC50) was determined. The gIC50 is the midpoint of the ‘growth window’, the difference between the number of cells at the time of compound addition (T0) and the number of cells after 6 days (DMSO control). The growth-death assay can be used to quantify the net population change, clearly defining cell death (cytotoxicity) as fewer cells compared to the number at the time of compound addition (T0).

[2] = test system: arginine methylation in Toledo DLBCL cells; test: Western analysis of arginine methylation marks (ADMA, SDMA, MMA); type: cell-based, human
From the text: (B) Representative western blots of arginine methylation marks. Regions quantified are denoted by black bars on the right of the gel.
(B) Representative western blots of arginine methylation marks. Regions quantified for (A) are denoted by black bars on the side of the gel.
As predicted, ADMA methylation decreased while MMA increased upon compound exposure (FIG. 12). […] Given the detection of numerous substrates with varying kinetics, and variability of ADMA levels among DMSO-treated samples, both the full lane and a prominent 45 kDa band were characterized to assess ADMA. Increases in MMA were apparent by 24 hours and near maximal by 48 hours while decreases in the 45 kDa ADMA band required 72-96 hours to achieve maximal effect. Increases in SDMA were apparent after 48 hours of compound exposure and continued to increase through 120 hours, consistent with the potential switch from conversion of MMA to ADMA by Type I PRMTs to SDMA by Type II PRMTs (FIG. 12).
Cells were then washed, cultured in Compound A-free media, samples were collected daily through 120 hours, and arginine methylation levels were examined by western analysis. […] SDMA appeared to continue to increase even after 6 hours of washout. This is consistent with the continued increase observed through 120 hours without any obvious plateau (FIG. 12) coupled with the durable increase in MMA that has not yet returned to baseline after washout. Durability of each modification generally reflected the kinetics of arginine methylation changes brought about by Compound A, with MMA being the most rapid.

ccRCC cell lines = settings: only at the highest concentration
[3] = test system: Toledo (human DLBCL) xenograft; test: Toledo xenograft tumor growth; settings: for Body weight Difference (vs. vehicle): Toledo (DLBCL)
[4] = test system: Prostate cancer cell lines; test: 6-day growth-death assay (Cell Titer Glo); type: cell-based, human; settings: 4 cell lines
PRMT5/MEP50 = PRMT5/MEP50 (Homo sapiens, UniProt O14744); test: PRMT family radioactive assay; type: biochemical; settings: Type II; 60 minute SAM:Enzyme:Compound A preincubation
PRMT8 = PRMT8 (Homo sapiens, UniProt Q9NR22); test: biochemical
PRMT9 = PRMT9 (Homo sapiens, UniProt Q6P2P2); test: PRMT family radioactive assay; type: biochemical; settings: Type II; 60 minute SAM:Enzyme:Compound A preincubation
NSC-LC cell lines = test: 6-day growth-death assay (Cell Titer Glo); type: cell-based, human; settings: for IC50: Homo sapiens, read-out: Median gIC50, Lung (NSCLC); for Median % Ymin − T0: Lung (NSCLC)
MDA-MB-435S = test: 6-day growth-death assay (Cell Titer Glo); type: cell-based, human
Procedure: as §3

AML cell lines [5] = test: 6-day growth-death assay (Cell Titer Glo); type: cell-based, human
Melanoma cell lines = test: 6-day growth-death assay (Cell Titer Glo); settings: for IC50: Homo sapiens, read-out: Median gIC50, Melanoma
Procedure: as §3

A375 = test: 6-day growth-death assay (Cell Titer Glo); type: cell-based; settings: Homo sapiens, A-375, 144 h, read-out: gIC50
Procedure: as §3

HL-60 = test: 6-day growth-death assay (Cell Titer Glo); type: cell-based; settings: Homo sapiens, HL-60, 144 h, read-out: gIC50
Procedure: as §3

ACHN = test: 6-day growth-death assay (Cell Titer Glo); type: cell-based; settings: Homo sapiens, 144 h, read-out: gIC50
Procedure: as §3

SK-MEL-5 = test: 6-day growth-death assay (Cell Titer Glo); type: cell-based; settings: Homo sapiens, SK-MEL-5, 144 h, read-out: gIC50
Procedure: as §3

Kidney cancer cell lines = test: 6-day growth-death assay (Cell Titer Glo); type: cell-based, human; settings: 10 cell lines
[6] = test system: Bladder cancer cell lines; test: 6-day growth-death assay (Cell Titer Glo); type: cell-based, human; settings: for IC50: Homo sapiens, read-out: Median gIC50, Bladder
[7] = test system: 196 human cancer cell lines; test: 6-day growth-death assay (Cell Titer Glo); type: cell-based
[8] = test system: human renal cell carcinoma xenografts (ACHN); test: ACHN xenograft tumor growth; type: in vivo, SCID mice; settings: for Body weight Difference (vs. vehicle): ACHN (ccRCC)
[9] = Homo sapiens, 144 h, read-out: Median gIC50
[10] = 0.4 μM Compound A for 72 hours then washout

Chain of PRMT8 (Q9NR22 whole entry): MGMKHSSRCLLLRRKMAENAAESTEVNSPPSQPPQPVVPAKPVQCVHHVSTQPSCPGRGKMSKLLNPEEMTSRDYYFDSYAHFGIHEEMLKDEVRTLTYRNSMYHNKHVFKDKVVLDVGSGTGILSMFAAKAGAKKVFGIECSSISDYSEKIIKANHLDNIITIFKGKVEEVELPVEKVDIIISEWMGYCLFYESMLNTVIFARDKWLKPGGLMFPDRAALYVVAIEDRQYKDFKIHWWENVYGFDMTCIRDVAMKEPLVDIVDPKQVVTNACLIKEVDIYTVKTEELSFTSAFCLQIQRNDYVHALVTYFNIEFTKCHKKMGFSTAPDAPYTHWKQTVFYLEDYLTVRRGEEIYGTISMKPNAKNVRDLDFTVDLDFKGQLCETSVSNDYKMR
Chain of PRMT6 (Q96LA8 whole entry): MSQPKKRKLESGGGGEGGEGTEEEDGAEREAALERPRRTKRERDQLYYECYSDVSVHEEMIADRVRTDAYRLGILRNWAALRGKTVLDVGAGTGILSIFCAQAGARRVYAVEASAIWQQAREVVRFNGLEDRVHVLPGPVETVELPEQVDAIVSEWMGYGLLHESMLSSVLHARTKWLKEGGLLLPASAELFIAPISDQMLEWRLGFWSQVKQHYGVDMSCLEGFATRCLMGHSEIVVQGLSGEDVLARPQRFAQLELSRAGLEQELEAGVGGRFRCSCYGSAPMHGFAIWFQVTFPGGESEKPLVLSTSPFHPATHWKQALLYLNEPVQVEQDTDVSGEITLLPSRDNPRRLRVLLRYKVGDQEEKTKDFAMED
Chain of PRMT9 (Q6P2P2 whole entry): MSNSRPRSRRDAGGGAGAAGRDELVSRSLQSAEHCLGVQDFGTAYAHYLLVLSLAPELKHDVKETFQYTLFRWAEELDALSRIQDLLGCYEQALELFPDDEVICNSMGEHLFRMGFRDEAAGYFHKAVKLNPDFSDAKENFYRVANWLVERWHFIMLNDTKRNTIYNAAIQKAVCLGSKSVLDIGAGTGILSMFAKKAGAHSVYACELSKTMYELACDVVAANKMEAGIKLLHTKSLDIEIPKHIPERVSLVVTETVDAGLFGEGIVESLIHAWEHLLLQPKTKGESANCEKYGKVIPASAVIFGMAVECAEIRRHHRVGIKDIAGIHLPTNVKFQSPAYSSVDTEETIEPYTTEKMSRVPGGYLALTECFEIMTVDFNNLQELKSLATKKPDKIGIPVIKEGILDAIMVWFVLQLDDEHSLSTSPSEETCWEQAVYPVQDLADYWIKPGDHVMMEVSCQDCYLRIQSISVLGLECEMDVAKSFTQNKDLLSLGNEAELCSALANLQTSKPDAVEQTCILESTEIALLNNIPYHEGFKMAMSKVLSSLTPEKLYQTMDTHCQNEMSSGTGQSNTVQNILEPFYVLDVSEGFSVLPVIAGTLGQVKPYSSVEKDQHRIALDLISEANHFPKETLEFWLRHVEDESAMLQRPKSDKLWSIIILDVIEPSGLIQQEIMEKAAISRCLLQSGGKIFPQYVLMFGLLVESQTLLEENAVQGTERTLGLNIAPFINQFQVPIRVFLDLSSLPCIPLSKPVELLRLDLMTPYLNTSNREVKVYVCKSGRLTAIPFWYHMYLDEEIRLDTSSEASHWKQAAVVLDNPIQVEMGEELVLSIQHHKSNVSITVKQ
Chain of PRMT5/MEP50 (O14744 whole entry): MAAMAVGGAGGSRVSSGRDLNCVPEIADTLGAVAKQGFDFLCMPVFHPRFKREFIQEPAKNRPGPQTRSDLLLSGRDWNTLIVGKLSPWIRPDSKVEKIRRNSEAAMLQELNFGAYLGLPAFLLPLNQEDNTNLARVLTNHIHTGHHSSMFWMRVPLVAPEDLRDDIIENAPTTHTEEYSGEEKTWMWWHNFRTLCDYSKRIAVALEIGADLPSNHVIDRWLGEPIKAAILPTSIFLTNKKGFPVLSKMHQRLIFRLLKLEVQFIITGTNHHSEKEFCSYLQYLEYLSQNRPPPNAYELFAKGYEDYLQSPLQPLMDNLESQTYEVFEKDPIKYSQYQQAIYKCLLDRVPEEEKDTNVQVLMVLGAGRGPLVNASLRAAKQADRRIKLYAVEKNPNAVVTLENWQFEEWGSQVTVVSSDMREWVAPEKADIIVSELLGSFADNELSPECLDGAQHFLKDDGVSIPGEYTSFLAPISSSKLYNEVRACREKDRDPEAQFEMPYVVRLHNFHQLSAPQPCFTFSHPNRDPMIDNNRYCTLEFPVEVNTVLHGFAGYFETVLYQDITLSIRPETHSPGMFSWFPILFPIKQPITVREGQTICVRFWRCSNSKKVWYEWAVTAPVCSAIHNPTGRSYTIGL
Chain of PRMT5/MEP50 (Q9BQA1 whole entry partner): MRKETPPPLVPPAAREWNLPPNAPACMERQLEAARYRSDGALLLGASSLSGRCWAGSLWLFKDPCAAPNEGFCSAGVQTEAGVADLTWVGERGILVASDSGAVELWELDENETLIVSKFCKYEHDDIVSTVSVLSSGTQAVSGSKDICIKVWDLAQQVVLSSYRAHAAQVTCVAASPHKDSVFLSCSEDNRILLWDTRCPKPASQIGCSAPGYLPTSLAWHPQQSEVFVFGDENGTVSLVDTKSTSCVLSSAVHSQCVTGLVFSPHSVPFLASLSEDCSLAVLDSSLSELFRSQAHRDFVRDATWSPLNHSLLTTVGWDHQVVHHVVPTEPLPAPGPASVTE

## CNCCN(C)Cc1c[nH]nc1[C@H]1CC[C@@]2(CC1)CC(C)(C)CO2 [Compound D]
AML cell lines [1]
  proteins with changes in arginine methylation states (Methylscan): the majority of substrates identified were transcriptional regulators and RNA processing proteins

## CCOCC1(COCC)CCC(c2n[nH]cc2CN(C)CCNC)CC1 [Compound A]
PRMT6
  IC50: 0.003 to 0.005 µM
OCI-Ly1
  Compound A concentration at which sub-G1 effect was evident: 10 µM
Toledo; beginning after 3 days of treatment
  Compound A concentrations giving accumulation of cells in sub-G1: ≥ 1000 nM
Toledo; by day 7
  Compound A concentrations giving increase in the sub-G1 population: ≥ 100 nM
U2932
  Compound A concentration at which sub-G1 effect was evident: 10 µM
Colon cancer cell lines; 6-day, Colon, 34 cell lines
  % Cytotoxic (cell lines with negative Ymin−T0): 3%
  % gIC100 < 2 μM (of cell lines): 0%
  Median gIC100: 29.33 µM
Colon cancer cell lines; [9]
  IC50: 5.51 µM
Lymphoma cell lines; 6-day, Lymphoma, 59 cell lines
  % Cytotoxic (cell lines with negative Ymin−T0): 54%
  % gIC100 < 2 μM (of cell lines): 14%
Lymphoma cell lines; MTAP High
  IC50: 0.6 µM
Lymphoma cell lines; MTAP Low
  IC50: 0.1 µM
Lymphoma cell lines; Lymphoma, MTAP High
  Median % Ymin − T0: 17%
  Median gIC100: 24.4 µM
Lymphoma cell lines; Lymphoma, MTAP Low
  Median % Ymin − T0: −89%
  Median gIC100: 5.3 µM
Breast cancer cell lines; 6-day, Breast, 29 cell lines
  % Cytotoxic (cell lines with negative Ymin−T0): 10%
  % gIC100 < 2 μM (of cell lines): 0%
  Median gIC100: 29.36 µM
Breast cancer cell lines; Breast, MTAP High
  Median % Ymin − T0: 174%
  Median gIC100: 29.4 µM
Breast cancer cell lines; Breast, MTAP Low
  Median % Ymin − T0: 188%
Breast cancer cell lines; 144 h, read-out: median gIC50, 6-day, TNBC cell lines
  IC50: 3.6 µM
Breast cancer cell lines; 144 h, read-out: median gIC50, 6-day, non-TNBC cell lines
  IC50: 6.8 µM
Breast cancer cell lines; read-out: Median gIC50, Breast, MTAP High
  IC50: 4.9 µM
Breast cancer cell lines; read-out: Median gIC50, Breast, MTAP Low
  IC50: 10.2 µM
[2]; 0.4 μM Compound A
  time after which increases in SDMA were apparent: 48 h
  time at which increases in MMA were apparent: ≤ 24 h
  time at which increases in MMA were near maximal: ≤ 48 h
  time required for maximal decrease in the 45 kDa ADMA band: 72 to 96 h
[2]; [10]
  time for ADMA to return to baseline after washout: ≤ 24 h
  time for MMA to return to baseline after washout: ≤ 24 h
  time for SDMA to return to baseline after washout: ≤ 96 h
ccRCC cell lines
  concentration at which caspase cleavage occurred: 30 µM
[3]; second study, 37.5 mg/kg QD oral, Day 25
  Body weight Difference (vs. vehicle): −5%
[3]; second study, 75 mg/kg BID oral, Day 25
  Body weight Difference (vs. vehicle): −4%
[3]; second study, 75 mg/kg QD oral, Day 25
  Body weight Difference (vs. vehicle): −5%
[3]; second study, 150 mg/kg QD oral, Day 25
  Body weight Difference (vs. vehicle): −7%
[3]; 150 mg/kg QD oral, Day 28
  Body weight Difference (vs. vehicle): −4%
[3]; 300 mg/kg QD oral, Day 28
  Body weight Difference (vs. vehicle): −3%
[3]; 450 mg/kg QD oral, Day 28
  Body weight Difference (vs. vehicle): −8%
[3]; 600 mg/kg QD oral, Day 28
  Body weight Difference (vs. vehicle): −7%
[3]; Toledo, any dose group
  body weight loss: No significant body weight loss
[4]
  % Cytotoxic (cell lines with negative Ymin−T0): 0%
  % gIC100 < 2 μM (of cell lines): 0%
PRMT5/MEP50
  inhibition of activity: failed to inhibit
PRMT8
  IC50: 0.003 to 0.005 µM
PRMT9
  inhibition of activity: failed to inhibit
NSC-LC cell lines; 6-day, NSC-LC, 25 cell lines
  % Cytotoxic (cell lines with negative Ymin−T0): 16%
  % gIC100 < 2 μM (of cell lines): 0%
  Median gIC100: 29.33 µM
NSC-LC cell lines; MTAP High
  IC50: 5 µM
  Median % Ymin − T0: 141%
NSC-LC cell lines; MTAP Low
  IC50: 3 µM
  Median % Ymin − T0: 237%
MDA-MB-435S
  gIC100: 29.33 ± 0.00 µM
AML cell lines [5]; 6-day, AML, 10 cell lines
  % Cytotoxic (cell lines with negative Ymin−T0): 50%
  % gIC100 < 2 μM (of cell lines): 0%
  Median gIC100: 16.72 µM
AML cell lines [5]; 6-day, of 10 AML cell lines
  number of cell lines in which cytotoxicity was induced: 5
AML cell lines [5]; [9]
  IC50: 0.54 µM
Melanoma cell lines; 6-day, Melanoma, 7 cell lines
  % Cytotoxic (cell lines with negative Ymin−T0): 0%
  % gIC100 < 2 μM (of cell lines): 0%
  Median gIC100: 29.33 µM
Melanoma cell lines; MTAP High
  IC50: 1.9 µM
Melanoma cell lines; MTAP Low
  IC50: 0.3 µM
Melanoma cell lines; Melanoma, MTAP High
  Median % Ymin − T0: 214%
  Median gIC100: 29.4 µM
Melanoma cell lines; Melanoma, MTAP Low
  Median % Ymin − T0: 53%
A375
  IC50: 0.05 ± 0.03 µM
HL-60
  IC50: 0.02 ± 0.01 µM
ACHN
  IC50: 0.1 ± 0.05 µM
SK-MEL-5
  IC50: 0.09 ± 0.03 µM
Kidney cancer cell lines
  % Cytotoxic (cell lines with negative Ymin−T0): 0%
  % gIC100 < 2 μM (of cell lines): 0%
  Median gIC100: 29.35 µM
[6]; 6-day, Bladder, 18 cell lines
  % Cytotoxic (cell lines with negative Ymin−T0): 0%
  % gIC100 < 2 μM (of cell lines): 0%
[6]; Bladder, MTAP High
  Median % Ymin − T0: 658%
  Median gIC100: 29.3 µM
[6]; Bladder, MTAP Low
  Median % Ymin − T0: 257%
  Median gIC100: 29.3 µM
[6]; MTAP High
  IC50: 7.6 µM
[6]; MTAP Low
  IC50: 1.6 µM
[7]; 6-day, Total, 196 cell lines
  % Cytotoxic (cell lines with negative Ymin−T0): 23%
  % gIC100 < 2 μM (of cell lines): 4%
[7]; [9]
  IC50: 2.12 µM
[8]; 150 mg/kg QD oral, Day 59
  Body weight Difference (vs. vehicle): −3%
[8]; 300 mg/kg QD oral, Day 59
  Body weight Difference (vs. vehicle): −4%
[8]; 450 mg/kg QD oral, Day 59
  Body weight Difference (vs. vehicle): −7%
[8]; 600 mg/kg QD oral, arm terminated at day 31
  Body weight Difference (vs. vehicle): −17%
[8]; ACHN, 600 mg/kg daily, dosing group terminated on day 31
  body weight loss: Significant body weight loss
